Experimental data: the kinase profiling compilation of Christmann-Franck et al. (2016)

Experiments:
Test in all cases: radiometric filter-binding kinase assay
PRKCA (human) = PRKCA (human) (UniProt P17252)
MAPKAPK2 (human) = MAPKAPK2 (human) (UniProt P49137)
MELK (human) = MELK (human) (UniProt Q14680)
MAP2K2 (human) = MAP2K2 (human) (UniProt P36507)
MAP3K9 (human) = MAP3K9 (human) (UniProt P80192)
MAP3K1 (human) = MAP3K1 (human) (UniProt Q13233)
NUAK1 (human) = NUAK1 (human) (UniProt O60285)
EEF2K (human) = EEF2K (human) (UniProt O00418)
BRSK1 (human) = BRSK1 (human) (UniProt Q8TDC3)
DYRK2 (human) = DYRK2 (human) (UniProt Q92630)
MARK2 (human) = MARK2 (human) (UniProt Q7KZI7)
EPHA2 (human) = EPHA2 (human) (UniProt P29317)
AURKA (human) = AURKA (human) (UniProt O14965)
MARK1 (human) = MARK1 (human) (UniProt Q9P0L2)
Chain of MARK1 (human) (Q9P0L2 whole entry, looked up): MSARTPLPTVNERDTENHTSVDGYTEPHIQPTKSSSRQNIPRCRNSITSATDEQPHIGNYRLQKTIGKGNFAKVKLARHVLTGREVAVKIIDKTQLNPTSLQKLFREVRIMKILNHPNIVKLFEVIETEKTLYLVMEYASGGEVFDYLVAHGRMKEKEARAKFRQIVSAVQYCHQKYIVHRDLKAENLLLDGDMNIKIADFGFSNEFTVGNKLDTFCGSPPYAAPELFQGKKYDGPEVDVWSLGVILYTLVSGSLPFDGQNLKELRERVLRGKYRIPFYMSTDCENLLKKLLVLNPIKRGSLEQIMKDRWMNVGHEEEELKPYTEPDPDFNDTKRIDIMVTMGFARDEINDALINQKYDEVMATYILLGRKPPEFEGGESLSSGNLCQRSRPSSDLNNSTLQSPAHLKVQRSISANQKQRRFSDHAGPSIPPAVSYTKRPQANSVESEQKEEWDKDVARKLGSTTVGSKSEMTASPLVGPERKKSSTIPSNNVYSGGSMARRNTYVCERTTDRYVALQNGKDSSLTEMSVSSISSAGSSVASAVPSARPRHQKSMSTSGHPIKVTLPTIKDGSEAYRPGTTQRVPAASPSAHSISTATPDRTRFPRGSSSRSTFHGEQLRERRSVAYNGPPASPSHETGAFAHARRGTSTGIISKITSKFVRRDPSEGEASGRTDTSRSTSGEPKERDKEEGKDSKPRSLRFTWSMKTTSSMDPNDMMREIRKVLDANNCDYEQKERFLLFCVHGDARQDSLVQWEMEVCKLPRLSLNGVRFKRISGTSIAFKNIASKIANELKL

[1] = system: AKT1 (human), P31749 [S473D]
GSK3B (human) = GSK3B (human) (UniProt P49841)
PRKCZ (human) = PRKCZ (human) (UniProt Q05513)
ERBB4 (human) = ERBB4 (human) (UniProt Q15303)
MAP2K6 (human) = MAP2K6 (human) (UniProt P52564)
Chain of MAP2K6 (human) (P52564 whole entry, looked up): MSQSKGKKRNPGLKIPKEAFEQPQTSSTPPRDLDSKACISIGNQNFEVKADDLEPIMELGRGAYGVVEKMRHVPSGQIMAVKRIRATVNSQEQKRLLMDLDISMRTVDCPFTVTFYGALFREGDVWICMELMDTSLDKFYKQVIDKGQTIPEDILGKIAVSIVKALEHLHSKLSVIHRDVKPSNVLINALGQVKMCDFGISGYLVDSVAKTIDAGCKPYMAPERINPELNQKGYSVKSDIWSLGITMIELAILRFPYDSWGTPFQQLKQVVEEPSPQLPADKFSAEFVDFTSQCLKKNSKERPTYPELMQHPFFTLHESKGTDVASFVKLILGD

MAP3K7 TAB1 (human) = MAP3K7 TAB1 (human) (UniProt Q15750+O43318)
EPHB3 (human) = EPHB3 (human) (UniProt P54753)
Chain of EPHB3 (human) (P54753 whole entry, looked up): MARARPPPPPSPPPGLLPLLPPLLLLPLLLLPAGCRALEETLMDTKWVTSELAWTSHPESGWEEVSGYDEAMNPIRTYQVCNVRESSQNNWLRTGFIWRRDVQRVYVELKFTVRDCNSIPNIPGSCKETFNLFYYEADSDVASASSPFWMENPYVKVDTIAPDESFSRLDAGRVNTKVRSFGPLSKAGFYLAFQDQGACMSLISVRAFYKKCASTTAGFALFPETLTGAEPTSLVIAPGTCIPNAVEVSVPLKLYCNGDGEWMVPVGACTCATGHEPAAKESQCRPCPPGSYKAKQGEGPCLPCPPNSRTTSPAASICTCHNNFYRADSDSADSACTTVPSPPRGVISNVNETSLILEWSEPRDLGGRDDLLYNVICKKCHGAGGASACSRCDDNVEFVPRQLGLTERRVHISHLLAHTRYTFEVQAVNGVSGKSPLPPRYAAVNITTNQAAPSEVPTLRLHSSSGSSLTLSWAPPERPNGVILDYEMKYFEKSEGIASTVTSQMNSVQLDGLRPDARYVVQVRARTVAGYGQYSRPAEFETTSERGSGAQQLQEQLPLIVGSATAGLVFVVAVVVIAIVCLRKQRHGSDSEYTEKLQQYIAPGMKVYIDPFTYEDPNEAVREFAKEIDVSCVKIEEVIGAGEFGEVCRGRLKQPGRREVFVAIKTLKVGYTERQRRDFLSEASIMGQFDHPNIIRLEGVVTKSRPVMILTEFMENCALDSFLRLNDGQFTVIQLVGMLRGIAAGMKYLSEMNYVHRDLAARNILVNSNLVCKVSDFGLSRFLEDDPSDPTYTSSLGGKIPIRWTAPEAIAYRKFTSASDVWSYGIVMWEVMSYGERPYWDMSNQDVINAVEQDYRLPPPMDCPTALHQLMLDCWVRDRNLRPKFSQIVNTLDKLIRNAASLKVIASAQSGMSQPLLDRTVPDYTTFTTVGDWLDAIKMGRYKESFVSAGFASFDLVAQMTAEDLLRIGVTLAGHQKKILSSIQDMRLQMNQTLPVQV

MAPK9 (human) = MAPK9 (human) (UniProt P45984)
NTRK1 (human) = NTRK1 (human) (UniProt P04629)
MARK4 (human) = MARK4 (human) (UniProt Q96L34)
PKN2 (human) = PKN2 (human) (UniProt Q16513)
MAP3K5 (human) = MAP3K5 (human) (UniProt Q99683)
IRAK4 (human) = IRAK4 (human) (UniProt Q9NWZ3)
MST4 (human) = MST4 (human) (UniProt Q9P289)
Chain of MST4 (human) (Q9P289 whole entry, looked up): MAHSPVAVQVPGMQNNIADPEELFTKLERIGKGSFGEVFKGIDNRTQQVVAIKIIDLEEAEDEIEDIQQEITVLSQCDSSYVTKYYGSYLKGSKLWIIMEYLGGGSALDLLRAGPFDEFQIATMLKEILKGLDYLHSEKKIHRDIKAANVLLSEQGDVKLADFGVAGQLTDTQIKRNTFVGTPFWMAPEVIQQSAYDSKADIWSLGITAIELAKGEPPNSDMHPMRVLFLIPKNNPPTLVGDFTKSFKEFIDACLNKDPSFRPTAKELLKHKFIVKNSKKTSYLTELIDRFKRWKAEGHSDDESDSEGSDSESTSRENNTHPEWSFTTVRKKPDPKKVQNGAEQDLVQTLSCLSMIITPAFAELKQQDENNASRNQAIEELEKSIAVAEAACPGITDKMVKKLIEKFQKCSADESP

PAK6 (human) = PAK6 (human) (UniProt Q9NQU5)
[2] = molecular target: STK11 CAB39 STRADA (human) (UniProt Q9Y376+Q7RTN6+Q15831)
MAP3K11 (human) = MAP3K11 (human) (UniProt Q16584)
PAK4 (human) = PAK4 (human) (UniProt O96013)
HIPK3 (human) = HIPK3 (human) (UniProt Q9H422)
MAPK12 (human) = MAPK12 (human) (UniProt P53778)
PIM1 (human) = PIM1 (human) (UniProt P11309)
Chain of PIM1 (human) (P11309 whole entry, looked up): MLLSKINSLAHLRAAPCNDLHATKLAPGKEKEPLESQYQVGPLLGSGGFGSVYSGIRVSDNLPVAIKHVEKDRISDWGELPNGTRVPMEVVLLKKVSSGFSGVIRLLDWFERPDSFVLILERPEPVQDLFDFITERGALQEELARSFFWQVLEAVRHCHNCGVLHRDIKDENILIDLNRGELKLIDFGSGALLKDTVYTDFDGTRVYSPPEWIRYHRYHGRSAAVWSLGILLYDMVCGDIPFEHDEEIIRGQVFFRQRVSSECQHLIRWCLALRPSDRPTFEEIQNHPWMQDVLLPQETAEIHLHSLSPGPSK

INSR (human) = INSR (human) (UniProt P06213)

Chain of MAPKAPK2 (human) (P49137 whole entry, looked up): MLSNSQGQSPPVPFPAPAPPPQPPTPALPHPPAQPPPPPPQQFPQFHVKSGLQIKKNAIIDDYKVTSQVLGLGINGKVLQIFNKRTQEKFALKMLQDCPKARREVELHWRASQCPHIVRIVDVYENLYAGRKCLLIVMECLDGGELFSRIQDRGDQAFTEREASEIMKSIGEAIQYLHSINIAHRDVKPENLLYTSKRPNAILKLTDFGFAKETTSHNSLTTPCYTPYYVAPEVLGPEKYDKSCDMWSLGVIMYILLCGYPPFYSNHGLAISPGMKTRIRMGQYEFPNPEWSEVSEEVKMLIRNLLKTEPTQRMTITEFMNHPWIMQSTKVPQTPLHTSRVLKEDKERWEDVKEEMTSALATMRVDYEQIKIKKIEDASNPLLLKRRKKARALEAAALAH
Chain of MAP3K9 (human) (P80192 whole entry, looked up): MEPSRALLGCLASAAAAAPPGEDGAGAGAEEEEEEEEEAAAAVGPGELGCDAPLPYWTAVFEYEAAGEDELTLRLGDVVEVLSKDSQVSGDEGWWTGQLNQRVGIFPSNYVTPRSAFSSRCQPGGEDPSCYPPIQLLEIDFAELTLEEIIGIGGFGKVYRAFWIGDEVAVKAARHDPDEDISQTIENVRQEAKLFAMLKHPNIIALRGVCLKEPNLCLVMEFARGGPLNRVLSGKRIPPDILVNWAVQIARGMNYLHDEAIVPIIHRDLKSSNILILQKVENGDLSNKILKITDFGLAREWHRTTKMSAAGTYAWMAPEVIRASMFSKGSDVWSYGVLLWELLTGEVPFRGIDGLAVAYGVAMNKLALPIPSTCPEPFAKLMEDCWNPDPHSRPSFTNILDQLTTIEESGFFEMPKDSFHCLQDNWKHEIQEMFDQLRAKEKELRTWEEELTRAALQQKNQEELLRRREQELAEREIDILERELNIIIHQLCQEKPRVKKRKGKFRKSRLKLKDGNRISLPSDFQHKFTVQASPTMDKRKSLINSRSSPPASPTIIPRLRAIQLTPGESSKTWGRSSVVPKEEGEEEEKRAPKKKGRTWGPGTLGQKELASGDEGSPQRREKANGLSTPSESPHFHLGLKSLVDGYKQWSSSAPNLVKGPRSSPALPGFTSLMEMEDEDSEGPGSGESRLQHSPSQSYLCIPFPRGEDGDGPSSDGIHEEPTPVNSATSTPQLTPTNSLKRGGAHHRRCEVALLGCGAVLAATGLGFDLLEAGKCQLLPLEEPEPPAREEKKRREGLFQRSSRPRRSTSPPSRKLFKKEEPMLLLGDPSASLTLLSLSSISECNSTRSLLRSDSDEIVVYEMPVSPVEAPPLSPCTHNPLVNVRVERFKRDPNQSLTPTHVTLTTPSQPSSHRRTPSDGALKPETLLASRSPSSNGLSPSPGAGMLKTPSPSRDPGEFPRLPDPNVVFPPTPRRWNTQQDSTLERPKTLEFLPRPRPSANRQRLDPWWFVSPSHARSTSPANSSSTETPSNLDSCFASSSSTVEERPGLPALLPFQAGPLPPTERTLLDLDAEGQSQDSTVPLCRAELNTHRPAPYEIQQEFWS

Compound: O=C(NCCCNc1nc(Nc2cccc(CN3CCOCC3)c2)ncc1C1CC1)C1CCC1
- residual activity (PRKCA (human); compound 0.1 µM): 79%
- residual activity (PRKCA (human); compound 1.0 µM): 93%
- residual activity (MAPKAPK2 (human); compound 0.1 µM): 106%
- residual activity (MAPKAPK2 (human); compound 1.0 µM): 114%
- residual activity (MELK (human); compound 0.1 µM): 43%
- residual activity (MELK (human); compound 1.0 µM): 26%
- residual activity (MAP2K2 (human); compound 0.1 µM): 106%
- residual activity (MAP2K2 (human); compound 1.0 µM): 75%
- residual activity (MAP3K9 (human); compound 0.1 µM): 40%
- residual activity (MAP3K9 (human); compound 1.0 µM): 16%
- residual activity (MAP3K1 (human); compound 0.1 µM): 115%
- residual activity (MAP3K1 (human); compound 1.0 µM): 137%
- residual activity (NUAK1 (human); compound 0.1 µM): 47%
- residual activity (NUAK1 (human); compound 1.0 µM): 11%
- residual activity (EEF2K (human); compound 0.1 µM): 98%
- residual activity (EEF2K (human); compound 1.0 µM): 110%
- residual activity (BRSK1 (human); compound 0.1 µM): 99%
- residual activity (BRSK1 (human); compound 1.0 µM): 82%
- residual activity (DYRK2 (human); compound 0.1 µM): 92%
- residual activity (DYRK2 (human); compound 1.0 µM): 101%
- residual activity (MARK2 (human); compound 0.1 µM): 27%
- residual activity (MARK2 (human); compound 1.0 µM): 10%
- residual activity (EPHA2 (human); compound 0.1 µM): 95%
- residual activity (EPHA2 (human); compound 1.0 µM): 98%
- residual activity (AURKA (human); compound 0.1 µM): 87%
- residual activity (AURKA (human); compound 1.0 µM): 29%
- residual activity (MARK1 (human); compound 0.1 µM): 16%
- residual activity (MARK1 (human); compound 1.0 µM): 9%
- residual activity ([1]; compound 0.1 µM): 90%
- residual activity ([1]; compound 1.0 µM): 93%
- residual activity (GSK3B (human); compound 0.1 µM): 95%
- residual activity (GSK3B (human); compound 1.0 µM): 96%
- residual activity (PRKCZ (human); compound 0.1 µM): 90%
- residual activity (PRKCZ (human); compound 1.0 µM): 95%
- residual activity (ERBB4 (human); compound 0.1 µM): 90%
- residual activity (ERBB4 (human); compound 1.0 µM): 95%
- residual activity (MAP2K6 (human); compound 0.1 µM): 105%
- residual activity (MAP2K6 (human); compound 1.0 µM): 113%
- residual activity (MAP3K7 TAB1 (human); compound 0.1 µM): 96%
- residual activity (MAP3K7 TAB1 (human); compound 1.0 µM): 57%
- residual activity (EPHB3 (human); compound 0.1 µM): 110%
- residual activity (EPHB3 (human); compound 1.0 µM): 101%
- residual activity (MAPK9 (human); compound 0.1 µM): 97%
- residual activity (MAPK9 (human); compound 1.0 µM): 106%
- residual activity (NTRK1 (human); compound 0.1 µM): 84%
- residual activity (NTRK1 (human); compound 1.0 µM): 47%
- residual activity (MARK4 (human); compound 0.1 µM): 33%
- residual activity (MARK4 (human); compound 1.0 µM): 29%
- residual activity (PKN2 (human); compound 0.1 µM): 87%
- residual activity (PKN2 (human); compound 1.0 µM): 66%
- residual activity (MAP3K5 (human); compound 0.1 µM): 105%
- residual activity (MAP3K5 (human); compound 1.0 µM): 88%
- residual activity (IRAK4 (human); compound 0.1 µM): 95%
- residual activity (IRAK4 (human); compound 1.0 µM): 83%
- residual activity (MST4 (human); compound 0.1 µM): 87%
- residual activity (MST4 (human); compound 1.0 µM): 94%
- residual activity (PAK6 (human); compound 0.1 µM): 87%
- residual activity (PAK6 (human); compound 1.0 µM): 84%
- residual activity ([2]; compound 0.1 µM): 109%
- residual activity ([2]; compound 1.0 µM): 118%
- residual activity (MAP3K11 (human); compound 0.1 µM): 54%
- residual activity (MAP3K11 (human); compound 1.0 µM): 8%
- residual activity (PAK4 (human); compound 0.1 µM): 100%
- residual activity (PAK4 (human); compound 1.0 µM): 79%
- residual activity (HIPK3 (human); compound 0.1 µM): 91%
- residual activity (HIPK3 (human); compound 1.0 µM): 108%
- residual activity (MAPK12 (human); compound 0.1 µM): 88%
- residual activity (MAPK12 (human); compound 1.0 µM): 85%
- residual activity (PIM1 (human); compound 0.1 µM): 114%
- residual activity (PIM1 (human); compound 1.0 µM): 120%
- residual activity (INSR (human); compound 0.1 µM): 97%
- residual activity (INSR (human); compound 1.0 µM): 100%
